Source: ChEMBL document CHEMBL6109104, “Synthesis and antibacterial evaluations of novel vancomycin analogues targeting bacteria membrane to combat Gram-negative infections” (Eur J Med Chem, 2025)
In brackets after ≈: the same amount, converted by molar mass.

Key:
Assay type in all cases: functional
Settings in all cases: time 16-18 hrs
Staphylococcus aureus [1] = experiment: Antibacterial activity against methicillin-resistant Staphylococcus aureus USA300 incubated for 16 to 18 hrs by muller hinton broth based microplate reader analysis
Staphylococcus aureus [2] = experiment: Antibacterial activity vancomycin-intermediate resistant Staphylococcus aureus incubated for 16 to 18 hrs by muller hinton broth based microplate reader analysis
Escherichia coli [3] = experiment: Antibacterial activity against Escherichia coli ATCC25922 incubated for 16 to 18 hrs by muller hinton broth based microplate reader analysis
Escherichia coli [4] = experiment: Antibacterial activity against Escherichia coli ATCC35150 incubated for 16 to 18 hrs by muller hinton broth based microplate reader analysis
Acinetobacter baumannii [5] = experiment: Antibacterial activity against Acinetobacter baumannii ATCC17978 incubated for 16 to 18 hrs by muller hinton broth based microplate reader analysis
Acinetobacter baumannii [6] = experiment: Antibacterial activity against Acinetobacter baumannii ATCC19606 incubated for 16 to 18 hrs by muller hinton broth based microplate reader analysis

SMILES | MIC (Staphylococcus aureus [1]) [µg/mL] | MIC (Staphylococcus aureus [2]) [µg/mL] | MIC (Escherichia coli [3]) [µg/mL] | MIC (Escherichia coli [4]) [µg/mL] | MIC (Acinetobacter baumannii [5]) [µg/mL] | MIC (Acinetobacter baumannii [6]) [µg/mL]
CN[C@H](CC(C)C)C(=O)N[C@H]1C(=O)N[C@@H](CC(N)=O)C(=O)N[C@H]2C(=O)N[C@H]3C(=O)N[C@H](C(=O)N[C@H](C(=O)O)c4cc(O)cc(O)c4-c4cc3ccc4O)[C@H](O)c3ccc(c(Cl)c3)Oc3cc2cc(c3O[C@@H]2O[C@H](CO)[C@@H](O)[C@H](O)[C@H]2O[C@H]2C[C@](C)(NC(=O)CCCCCCCCCCC[n+]3ccc(C)cc3)[C@H](O)[C@H](C)O2)Oc2ccc(cc2Cl)[C@H]1O.[Br-] | 4 | > 128 | > 128 | > 128 | > 128 | > 128
CN[C@H](CC(C)C)C(=O)N[C@H]1C(=O)N[C@@H](CC(N)=O)C(=O)N[C@H]2C(=O)N[C@H]3C(=O)N[C@H](C(=O)N[C@H](C(=O)O)c4cc(O)cc(O)c4-c4cc3ccc4O)[C@H](O)c3ccc(c(Cl)c3)Oc3cc2cc(c3O[C@@H]2O[C@H](CO)[C@@H](O)[C@H](O)[C@H]2O[C@H]2C[C@](C)(NC(=O)CCCCCCCCCCC[n+]3ccccc3)[C@H](O)[C@H](C)O2)Oc2ccc(cc2Cl)[C@H]1O.[Br-] | 4 | 64 | > 128 | > 128 | > 128 | > 128
CCCCCCCCCC[N+]1(C)CCN(C(=O)c2ccc(CN[C@@]3(C)C[C@H](O[C@H]4[C@H](Oc5c6cc7cc5Oc5ccc(cc5Cl)[C@@H](O)[C@@H](NC(=O)[C@@H](CC(C)C)NC)C(=O)N[C@@H](CC(N)=O)C(=O)N[C@H]7C(=O)N[C@H]5C(=O)N[C@H](C(=O)N[C@H](C(=O)O)c7cc(O)cc(O)c7-c7cc5ccc7O)[C@H](O)c5ccc(c(Cl)c5)O6)O[C@H](CO)[C@@H](O)[C@@H]4O)O[C@@H](C)[C@H]3O)cc2)CC1.[Br-] | 1 | 64 | 64 | 64 | > 128 | 64
CCCCCCCCCC[N+]1(C)CCN(C(=O)[C@H]2NC(=O)[C@H]3NC(=O)[C@H](NC(=O)[C@@H]4NC(=O)[C@H](CC(N)=O)NC(=O)[C@H](NC(=O)[C@@H](CC(C)C)NC)[C@H](O)c5ccc(c(Cl)c5)Oc5cc4cc(c5O[C@@H]4O[C@H](CO)[C@@H](O)[C@H](O)[C@H]4O[C@H]4C[C@](C)(N)[C@H](O)[C@H](C)O4)Oc4ccc(cc4Cl)[C@H]3O)c3ccc(O)c(c3)-c3c(O)cc(O)cc32)CC1.[Br-] (stereo in doubt) | 1 | 1 | 16 | 16 | 32 | 32
CCCCCCCCCCCC[n+]1ccc(C(=O)NCCNC(=O)[C@@H]2NC(=O)[C@H]3NC(=O)[C@H](NC(=O)[C@@H]4NC(=O)[C@H](CC(N)=O)NC(=O)[C@H](NC(=O)[C@@H](CC(C)C)NC)[C@H](O)c5ccc(c(Cl)c5)Oc5cc4cc(c5O[C@@H]4O[C@H](CO)[C@@H](O)[C@H](O)[C@H]4O[C@H]4C[C@](C)(N)[C@H](O)[C@H](C)O4)Oc4ccc(cc4Cl)[C@H]3O)c3ccc(O)c(c3)-c3c(O)cc(O)cc32)cc1.[Br-] (stereo in doubt) | 2 | 64 | > 128 | > 128 | 64 | 16
CN[C@H](CC(C)C)C(=O)N[C@H]1C(=O)N[C@@H](CC(N)=O)C(=O)N[C@H]2C(=O)N[C@H]3C(=O)N[C@H](C(=O)N[C@H](C(=O)O)c4cc(O)cc(O)c4-c4cc3ccc4O)[C@H](O)c3ccc(c(Cl)c3)Oc3cc2cc(c3O[C@@H]2O[C@H](CO)[C@@H](O)[C@H](O)[C@H]2O[C@H]2C[C@](C)(NC(=O)CCCCCCCCCCC[n+]3cccc(Br)c3)[C@H](O)[C@H](C)O2)Oc2ccc(cc2Cl)[C@H]1O.[Br-] | 4 | 32 | > 128 | > 128 | > 128 | > 128
CCCCCCCCCCCCCCCC[N+]1(C)CCN(C(=O)[C@H]2NC(=O)[C@H]3NC(=O)[C@H](NC(=O)[C@@H]4NC(=O)[C@H](CC(N)=O)NC(=O)[C@H](NC(=O)[C@@H](CC(C)C)NC)[C@H](O)c5ccc(c(Cl)c5)Oc5cc4cc(c5O[C@@H]4O[C@H](CO)[C@@H](O)[C@H](O)[C@H]4O[C@H]4C[C@](C)(N)[C@H](O)[C@H](C)O4)Oc4ccc(cc4Cl)[C@H]3O)c3ccc(O)c(c3)-c3c(O)cc(O)cc32)CC1.[Br-] (stereo in doubt) | 8 | > 128 | 64 | > 128 | > 128 | > 128
CCCCCCCCCCCC[N+]1(C)CCN(C(=O)c2ccc(CN[C@@]3(C)C[C@H](O[C@H]4[C@H](Oc5c6cc7cc5Oc5ccc(cc5Cl)[C@@H](O)[C@@H](NC(=O)[C@@H](CC(C)C)NC)C(=O)N[C@@H](CC(N)=O)C(=O)N[C@H]7C(=O)N[C@H]5C(=O)N[C@H](C(=O)N[C@H](C(=O)O)c7cc(O)cc(O)c7-c7cc5ccc7O)[C@H](O)c5ccc(c(Cl)c5)O6)O[C@H](CO)[C@@H](O)[C@@H]4O)O[C@@H](C)[C@H]3O)cc2)CC1.[Br-] | 2 | 64 | > 128 | > 128 | 32 | 16
CN[C@H](CC(C)C)C(=O)N[C@H]1C(=O)N[C@@H](CC(N)=O)C(=O)N[C@H]2C(=O)N[C@H]3C(=O)N[C@H](C(=O)N[C@H](C(=O)N4CCN(C)CC4)c4cc(O)cc(O)c4-c4cc3ccc4O)[C@H](O)c3ccc(c(Cl)c3)Oc3cc2cc(c3O[C@@H]2O[C@H](CO)[C@@H](O)[C@H](O)[C@H]2O[C@H]2C[C@](C)(N)[C@H](O)[C@H](C)O2)Oc2ccc(cc2Cl)[C@H]1O (stereo in doubt) | 4 (≈ 2.61 µM) | > 128 | > 128 | > 128 | > 128 | > 128
CN[C@H](CC(C)C)C(=O)N[C@H]1C(=O)N[C@@H](CC(N)=O)C(=O)N[C@H]2C(=O)N[C@H]3C(=O)N[C@H](C(=O)N[C@H](C(=O)O)c4cc(O)cc(O)c4-c4cc3ccc4O)[C@H](O)c3ccc(c(Cl)c3)Oc3cc2cc(c3O[C@@H]2O[C@H](CO)[C@@H](O)[C@H](O)[C@H]2O[C@H]2C[C@](C)(NC(=O)CCCCCCCCC[n+]3ccc(C)cc3)[C@H](O)[C@H](C)O2)Oc2ccc(cc2Cl)[C@H]1O.[Br-] | 8 | > 128 | > 128 | > 128 | > 128 | > 128
CN[C@H](CC(C)C)C(=O)N[C@H]1C(=O)N[C@@H](CC(N)=O)C(=O)N[C@H]2C(=O)N[C@H]3C(=O)N[C@H](C(=O)N[C@H](C(=O)O)c4cc(O)cc(O)c4-c4cc3ccc4O)[C@H](O)c3ccc(c(Cl)c3)Oc3cc2cc(c3O[C@@H]2O[C@H](CO)[C@@H](O)[C@H](O)[C@H]2O[C@H]2C[C@](C)(NC(=O)CCCCCCCCCCC[n+]3cccc(O)c3)[C@H](O)[C@H](C)O2)Oc2ccc(cc2Cl)[C@H]1O.[Br-] | 8 | 64 | > 128 | > 128 | > 128 | > 128
CN[C@H](CC(C)C)C(=O)N[C@H]1C(=O)N[C@@H](CC(N)=O)C(=O)N[C@H]2C(=O)N[C@H]3C(=O)N[C@H](C(=O)N[C@H](C(=O)O)c4cc(O)cc(O)c4-c4cc3ccc4O)[C@H](O)c3ccc(c(Cl)c3)Oc3cc2cc(c3O[C@@H]2O[C@H](CO)[C@@H](O)[C@H](O)[C@H]2O[C@H]2C[C@](C)(NC(=O)CCCCCCCCCCC[n+]3cccc(C(C)=O)c3)[C@H](O)[C@H](C)O2)Oc2ccc(cc2Cl)[C@H]1O.[Br-] | 4 | 64 | > 128 | > 128 | > 128 | > 128
CCCCCCCCCCCCCC[N+]1(C)CCN(C(=O)[C@H]2NC(=O)[C@H]3NC(=O)[C@H](NC(=O)[C@@H]4NC(=O)[C@H](CC(N)=O)NC(=O)[C@H](NC(=O)[C@@H](CC(C)C)NC)[C@H](O)c5ccc(c(Cl)c5)Oc5cc4cc(c5O[C@@H]4O[C@H](CO)[C@@H](O)[C@H](O)[C@H]4O[C@H]4C[C@](C)(N)[C@H](O)[C@H](C)O4)Oc4ccc(cc4Cl)[C@H]3O)c3ccc(O)c(c3)-c3c(O)cc(O)cc32)CC1.[Br-] (stereo in doubt) | 1 | 32 | 32 | 32 | 32 | 32
CCCCCCCCCCCCCC[n+]1ccc(C(=O)NCCNC(=O)[C@H]2NC(=O)[C@H]3NC(=O)[C@H](NC(=O)[C@@H]4NC(=O)[C@H](CC(N)=O)NC(=O)[C@H](NC(=O)[C@@H](CC(C)C)NC)[C@H](O)c5ccc(c(Cl)c5)Oc5cc4cc(c5O[C@@H]4O[C@H](CO)[C@@H](O)[C@H](O)[C@H]4O[C@H]4C[C@](C)(N)[C@H](O)[C@H](C)O4)Oc4ccc(cc4Cl)[C@H]3O)c3ccc(O)c(c3)-c3c(O)cc(O)cc32)cc1.[Br-] (stereo in doubt) | 4 | 64 | > 128 | > 128 | > 128 | > 128
CCCCCCCCCCCCCC[N+]1(C)CCN(C(=O)c2ccc(CN[C@@]3(C)C[C@H](O[C@H]4[C@H](Oc5c6cc7cc5Oc5ccc(cc5Cl)[C@@H](O)[C@@H](NC(=O)[C@@H](CC(C)C)NC)C(=O)N[C@@H](CC(N)=O)C(=O)N[C@H]7C(=O)N[C@H]5C(=O)N[C@H](C(=O)N[C@H](C(=O)O)c7cc(O)cc(O)c7-c7cc5ccc7O)[C@H](O)c5ccc(c(Cl)c5)O6)O[C@H](CO)[C@@H](O)[C@@H]4O)O[C@@H](C)[C@H]3O)cc2)CC1.[Br-] | 2 | 64 | > 128 | > 128 | > 128 | > 128
CN[C@H](CC(C)C)C(=O)N[C@H]1C(=O)N[C@@H](CC(N)=O)C(=O)N[C@H]2C(=O)N[C@H]3C(=O)N[C@H](C(=O)N[C@H](C(=O)O)c4cc(O)cc(O)c4-c4cc3ccc4O)[C@H](O)c3ccc(c(Cl)c3)Oc3cc2cc(c3O[C@@H]2O[C@H](CO)[C@@H](O)[C@H](O)[C@H]2O[C@H]2C[C@](C)(NC(=O)CCCCCCCCCCC[n+]3cccc(F)c3)[C@H](O)[C@H](C)O2)Oc2ccc(cc2Cl)[C@H]1O.[Br-] | 4 | 64 | > 128 | > 128 | > 128 | > 128
